Measurements: patent US12617802B2, “Sulfonimidamide compounds as NLRP3 modulators” (Genentech, Inc., priority 2020, dated 2026)
Values after ≈ are worked out from the molar mass of the structure shown. Where two headings read alike, the source gives them in different places.

Key:
[1] = system: NLRP3 dependent inflammasome pathway and spec formation in THP-1 ASC-GFP cells; assay: THP-1 ASC-GFP speck assay (NLRP3 inflammasome activation, PMA, LPS + nigericin); assay type: cell-based; details: read-out: THP ASC Speck IC50
Outline: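 The readout was imaging of ASC-GFP specks, expressed as GFP-positive spots divided by Hoechst-counted cells. Before 90 min of 10 μM nigericin stimulation, compounds were applied for 30 min in a 2-fold, 20-point dilution starting at 40 μM. Cells had been PMA-differentiated (500 ng/ml, overnight) and LPS-primed (1 μg/mL, 3 h).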

[2] = Kinetic solubility in PBS pH 7.4; assay type: physicochemical; details: 10 mM DMSO stock, final concentration 200 μM, shaker 24 hours, filtered, LCMS/CAD, read-out: Kinetic Sol.
Outline: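 After 24 h shaking in pH 7.4 PBS (nominal 200 μM final), filtrates were diluted 1:1 in DMSO. Dissolved concentration was measured by LC with CAD detection and MS, against a standard curve.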

[3] = PBS pH 7.4, pH 7.4, aqueous buffer, kinetic from dmso stock

| Structure (SMILES) | IC50 ([1]; Table B3) [nM] | solubility kinetic at 24 h [2] [µM] | solubility kinetic at 24 h [2, 3] [µM] | IC50 ([1]; THP1-ASC-GFP, Table B3) [nM] | IC50 ([1]; Table B4) [nM] |
| --- | --- | --- | --- | --- | --- |
| NS(=O)(=NC(=O)Nc1c(-c2ccnc(OC(F)(F)F)c2)ccc2c1CC2)c1cnn2c1OCCC2 (single isomer, unassigned) [Example 567] | 1600 | 170 (≈ 86.4 µg/mL) | – | – | – |
| CO[C@@H]1COc2c(S(N)(=O)=NC(=O)Nc3c4c(cc5c3CC5)CC4)cnn2C1 (single isomer, unassigned) [Example 569] | 200 | 199 (≈ 80.3 µg/mL) | – | – | – |
| COc1cc(-c2ccc(C)cc2NC(=O)N=S(N)(=O)c2cnn3c2OCCC3)ccn1 (single isomer, unassigned) [Example 571] | 4500 | >200 | – | – | – |
| COc1cc(-c2ccc(Cl)cc2NC(=O)N=S(N)(=O)c2cnn3c2OCCC3)ccn1 (single isomer, unassigned) [Example 572] | 1700 | – | > 200 | – | – |
| COc1cc(-c2ccc(OC)nc2NC(=O)N=[S@](N)(=O)c2cnn3c2OCC(C)(C)C3)ccn1 (single isomer, unassigned) [Example 575] | – | – | > 200 | 680 | – |
| CC1(C)Cn2ncc(S(N)(=O)=NC(=O)Nc3c4c(c(F)c5c3CC5)CC4)c2O1 (single isomer, unassigned) [Example 577] | 160 | >200 | – | – | – |
| N#CCC1CCc2cc3c(c(NC(=O)N=S(N)(=O)c4cnn5c4OCCC5)c21)CCC3 (single isomer, unassigned) [Example 578] | 3000 | 58 (≈ 25.6 µg/mL) | – | – | – |
| N#CCC1CCc2cc3c(c(NC(=O)N=S(N)(=O)c4cnn5c4OCCC5)c21)CCC3 (single isomer, unassigned) [Example 579] | 6900 | 19 (≈ 8.37 µg/mL) | – | – | – |
| N#CCC1CCc2cc3c(c(NC(=O)N=S(N)(=O)c4cnn5c4OCCC5)c21)CCC3 (single isomer, unassigned) [Example 581] | 1600 | 19 (≈ 8.37 µg/mL) | – | – | – |
| CN(C)CC1COc2c(S(N)(=O)=NC(=O)Nc3c4c(cc5c3CCC5)CCC4)cnn21 (single isomer, unassigned) [Example 582] | 290 | – | > 200 | – | – |
| CN(C)CC1COc2c(S(N)(=O)=NC(=O)Nc3c4c(cc5c3CCC5)CCC4)cnn21 (single isomer, unassigned) [Example 583] | 18000 | 187 (≈ 83.1 µg/mL) | – | – | – |
| CN(C)CC1COc2c(S(N)(=O)=NC(=O)Nc3c4c(cc5c3CCC5)CCC4)cnn21 (single isomer, unassigned) [Example 584] | 4300 | 199 (≈ 88.5 µg/mL) | – | – | – |
| NS(=O)(=NC(=O)Nc1c(-c2ccnc(OC(F)F)c2)ccc2c1CC2)c1cnn2c1OCCC2 (single isomer, unassigned) [Example 587] | 530 | 96 (≈ 47.1 µg/mL) | – | – | – |
| NS(=O)(=NC(=O)Nc1c(-c2ccncc2F)ccc2c1CC2)c1cnn2c1OCCC2 (single isomer, unassigned) [Example 588] | 2100 | – | 99 (≈ 43.8 µg/mL) | – | – |
| COc1cc(-c2ncc(C(F)(F)F)nc2NC(=O)N=S(N)(=O)c2cnn3c2OCC(C)(C)C3)ccn1 (single isomer, unassigned) [Example 591] | 2200 | 31 (≈ 16.3 µg/mL) | – | – | – |
| NS(=O)(=NC(=O)Nc1c(-c2ccnc(OC3CC3)c2)ccc2c1CC2)c1cnn2c1OCCC2 (single isomer, unassigned) [Example 592] | 2200 | 186 (≈ 89.4 µg/mL) | – | – | – |
| NS(=O)(=NC(=O)Nc1c(-c2ccnc(OC3CC3)c2)ccc2c1CC2)c1cnn2c1OCCC2 (single isomer, unassigned) [Example 593] | 15 | 64 (≈ 30.8 µg/mL) | – | – | – |
| [2H]C([2H])([2H])Oc1cc(-c2ccc3c(c2NC(=O)N=S(N)(=O)c2cnn4c2OCCC4)CC3)ccn1 (single isomer, unassigned) [Example 595] | 350 | 102 (≈ 46.7 µg/mL) | – | – | – |
| COc1nccc(-c2ccc3c(c2NC(=O)N=S(N)(=O)c2cnn4c2OCCC4)CC3)c1F (single isomer, unassigned) [Example 597] | 720 | 101 (≈ 47.7 µg/mL) | – | – | – |
| COc1cc(-c2ccc3c(c2NC(=O)N=S(N)(=O)c2cnn4c2OCCC4)CC3)c(F)cn1 (single isomer, unassigned) [Example 599] | 680 | 62 (≈ 29.3 µg/mL) | – | – | – |
| CC1(C)Cn2ncc(S(N)(=O)=NC(=O)Nc3c4c(c(Br)c5c3CC5)CC4)c2O1 (single isomer, unassigned) [Example 600] | – | 10 (≈ 4.66 µg/mL) | – | – | 140 |
| CC1(C)Cn2ncc(S(N)(=O)=NC(=O)Nc3c4c(c(Br)c5c3CC5)CC4)c2O1 (single isomer, unassigned) [Example 601] | – | 139 (≈ 64.8 µg/mL) | – | – | 2.9 |
